Reference: patent US6838436B1, “Inhibitors of proteasomal activity for stimulating bone growth” (Osteoscreen Inc., priority 1998, dated 2005)

Experiments:
[1] = test system: hair follicles of skin explants; test: Skin explants from mice during telogen (Example 16); type: cell-based; settings: 72 hours
From the text: In the untreated control explants, the follicles were few and small.

[2] = test system: hair follicles of skin explants; test: Cultured skin explants from 5 day old mice, hair follicle diameter and elongation (Example 11); type: cell-based, C3H/HeS1c mice; settings: 10 μM; 72 hours
Description: Cultured skin explants from 5 day old mice cultured for 72 hours were treated with proteasome inhibitors, non-proteasomal proteases and non-proteasomal inhibitors of NF-κB and effects on hair follicle diameter and follicle elongation were determined according to the method of Kamiya, T., et al., J Derm Sci (1998) 17:54-60. Skin slices from the dorsal skin of 5 day old C3H/HeS1c mice were cultured in 1 ml of αMEM and 0.1% BSA for 72 hours and then assessed for changes in hair follicle diameter and hair elongation under an inverted microscope, using image analysis. […] Thus, the chymotrypsin-like activity of the proteasome is the catalytic component of the proteasome that is responsible for the effects of these compounds on hair follicle differentiation and hair growth. Only proteasome inhibitors had discernable effects on these parameters.

proteasomal activity = settings: cited from earlier work
hair follicles = test: Induction of anagen in hair follicles in vivo (Example 12); design: species or system C57 black mice; settings: dose not given
Description: Inhibitors of the proteasomal chymotrypsin-like activity were treated for their capacity to induce transit of hair follicles into anagen in vivo in C57 black mice eight weeks of age.

neonatal mouse calvaria = test: Neonatal mouse calvaria assay (in vitro / ex vivo) for bone formation; type: cell-based, ICR Swiss white mouse
Description: An assay for bone resorption or bone formation is similar to that described by Gowen M. & Mundy G., J Immunol (1986) 136:2478-82. Briefly, four days after birth, the front and parietal bones of ICR Swiss white mouse pups are removed by microdissection and split along the sagittal suture. In an assay for resorption, the bones are incubated in BGJb medium (Irvine Scientific, Santa Ana, Calif.) plus 0.02% (or lower concentration) β-methylcyclodextrin, wherein the medium also contains test or control substances. The medium used when the assay is conducted to assess bone formation is Fitton and Jackson Modified BGJ Medium (Sigma) supplemented with 6 μg/ml insulin, 6 μg/ml transferrin, 6 ng/ml selenous acid, calcium and phosphate concentrations of 1.25 and 3.0 mM, respectively, and ascorbic acid to a concentration of 100 μg/ml is added every two days. The incubation is conducted at 37° C. in a humidified atmosphere of 5% CO2 and 95% air for 96 hours.
Following this, the bones are removed from the incubation media and fixed in 10% buffered formalin for 24-48 hours, decalcified in 14% EDTA for 1 week, processed through graded alcohols; and embedded in paraffin wax. Three […] sections of the calvaria are prepared. Representative sections are selected for histomorphometric assessment of bone formation or bone resorption. Bone changes are measured on sections cut 200 μm apart. Osteoblasts and osteoclasts are identified by their distinctive morphology.
Selected compounds and appropriate controls were assayed in vitro (ex vivo) for bone formation activity (described above in “Techniques for Neonatal Mouse Calvaria Assay (in vitro)). Histomorphometrical assessments of ex vivo calvaria were carried out using an OsteoMetrics bone morphometry measurement program, according to the manufacturer's instructions. Measurements were determined using either a 10- or 20-fold objective with a standard point counting eyepiece graticule.
New bone formation was determined (using a 10× objective) by measuring the new bone area formed in one field in 3 representative sections of each bone (4 bones per group). Each measurement was carried out ½ field distance from the end of the suture. Both total bone and old bone area were measured. Data were expressed as new bone area in μm^2.
Osteoblast numbers are determined by point counting. The number of osteoblast cells lining the bone surface on both sides of the bone are counted in one field using a 20× objective. Data are expressed as osteoblast numbers/mm of bone surface. […]

mouse BMP2 promoter = test: High throughput screen (ABA assay): BMP2 promoter-luciferase reporter in 2T3-BMP-2-LUC osteoblast cells; type: cell-based
From the text: 1995, the entire contents of which are incorporated herein by reference. This assay is also described as a portion of a study of immortalized murine osteoblasts (derived from a mouse expressing a transgene composed of a BMP2 promoter driving expression of T-antigen) in Ghosh-Choudhery, N., et al., Endocrinology (1996) 137:331-39. In this study, the immortalized cells were stably transfected with a plasmid containing a luciferase reporter gene driven by a mouse BMP2 promoter (−2736/114 bp), and responded in a dose-dependent manner to recombinant human BMP2.
Briefly, the assay utilizes cells transformed permanently or transiently with constructs in which the promoter of a bone morphogenetic protein, specifically BMP2 or BMP4, is coupled to a reporter gene, typically luciferase. These transformed cells are then evaluated for the production of the reporter gene product; compounds that activate the BMP promoter will drive production of the reporter protein, which can be readily assayed. Many thousands of compounds have been subjected to this rapid screening technique, and only a very small percentage are able to elicit a level of expression of reporter gene 5-fold greater than that produced by vehicle. […] The active compounds (“BMP promoter-active compounds” or “active compounds”) are useful in promoting bone or cartilage growth, and thus in the treatment of vertebrates in need of bone or cartilage growth.
Thousands of compounds have been tested in the assay system set forth in U.S. Ser. No. 08/458,434, filed 2 Jun. 1995, and incorporated herein by reference. […] In this screen, the standard positive control was the compound 59-0008 (also denoted “OS8”), which is of the formula: [drawing 22]
In more detail, the 2T3-BMP-2-LUC cells, a stably transformed osteoblast cell line described in Ghosh-Choudhury et al. Endocrinology (1996) 137:331-39, referenced above, was employed. The cells were cultured using α-MEM, 10% FCS with 1% penicillin/streptomycin and 1% glutamine (“plating medium”), and were split 1:5 once per week. For the assay, the cells were resuspended in a plating medium containing 4% FCS, plated in microtiter plates at a concentration of 5×10^3 cells (in 50 μl)/well, and incubated for 24 hours at 37° C. in 5% CO2. To initiate the assay, 50 μl of the test compound or the control in DMSO was added at 2× concentration to each well, so that the final volume was 100 μl. The final serum concentration was 2% FCS, and the final DMSO concentration was 1%. Compound 59-0008 (10 μM) was used as a positive control.
The treated cells were incubated for 24 hours at 37° C. and 5% CO2. The medium was then removed, and the cells were rinsed three times with PBS. After removal of excess PBS, 25 μl of 1× cell culture lysing reagent (Promega #E153A) was added to each well and incubated for at least ten minutes. Optionally, the plates/samples could be frozen at this point. To each well was added 50 μl of luciferase substrate (Promega #E152A; 10 ml Promega luciferase assay buffer per 7 mg Promega luciferase assay substrate). Luminescence was measured on an automated 96-well luminometer, and was expressed as either picograms of luciferase activity per well or as picograms of luciferase activity per microgram of protein.
Accordingly, other tested compounds can be evaluated at various concentrations, and the results compared to the results obtained for 59-0008 at 10 μM (which value would be normalized to 100). Alternatively, the reactivity of a compound to be tested can be compared directly to a negative control containing no compound.

SMILES | concentrations causing these changes, relative to the proteasome inhibitors [1] | effect on follicle growth [2] | effects on proteasomal activity (proteasomal activity) | effect on hair follicles (hair follicles) | new bone formation in the in vitro calvarial assay (neonatal mouse calvaria) | response in the high throughput luciferase screen (mouse BMP2 promoter)
Nc1cc(N2CCCCC2)nc(N)[n+]1[O-] [Minoxidil] | 10,000 fold | – | – | – | – | –
S=C(S)N1CCCC1 [PDTC, 1-pyrrolidinecarbodithioic acid] | – | did not significantly affect follicle growth | no effects on proteasomal activity | had no effect on hair follicles | appeared negative | do not give promising responses
